Assay [1] deals with T1, Amine oxidase [flavin-containing] A (Homo sapiens, UniProt P21397).
T1 sequence (P21397 whole entry): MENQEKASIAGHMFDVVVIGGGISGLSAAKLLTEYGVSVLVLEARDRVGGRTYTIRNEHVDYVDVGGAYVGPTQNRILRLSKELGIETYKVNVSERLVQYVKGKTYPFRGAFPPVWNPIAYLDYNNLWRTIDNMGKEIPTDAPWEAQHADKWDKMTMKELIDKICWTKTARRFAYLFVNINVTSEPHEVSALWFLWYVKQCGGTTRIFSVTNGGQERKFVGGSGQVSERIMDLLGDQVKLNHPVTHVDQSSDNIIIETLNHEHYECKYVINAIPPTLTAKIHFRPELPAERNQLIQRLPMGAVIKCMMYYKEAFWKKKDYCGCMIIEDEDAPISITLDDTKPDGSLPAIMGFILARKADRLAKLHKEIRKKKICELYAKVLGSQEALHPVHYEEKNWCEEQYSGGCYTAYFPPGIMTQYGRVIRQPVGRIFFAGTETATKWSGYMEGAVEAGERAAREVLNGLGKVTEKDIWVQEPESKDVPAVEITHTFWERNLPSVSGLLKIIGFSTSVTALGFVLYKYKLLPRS
Nature of the assay: Inhibition of human recombinant MAO-A assessed as inhibition of production of hydrogen peroxide at 100 uM after 15 mins by the Amplex Red fluorimetric method.

The target of assay [2] is T2, Amine oxidase [flavin-containing] B (Homo sapiens, UniProt P27338).
T2 sequence (P27338 whole entry): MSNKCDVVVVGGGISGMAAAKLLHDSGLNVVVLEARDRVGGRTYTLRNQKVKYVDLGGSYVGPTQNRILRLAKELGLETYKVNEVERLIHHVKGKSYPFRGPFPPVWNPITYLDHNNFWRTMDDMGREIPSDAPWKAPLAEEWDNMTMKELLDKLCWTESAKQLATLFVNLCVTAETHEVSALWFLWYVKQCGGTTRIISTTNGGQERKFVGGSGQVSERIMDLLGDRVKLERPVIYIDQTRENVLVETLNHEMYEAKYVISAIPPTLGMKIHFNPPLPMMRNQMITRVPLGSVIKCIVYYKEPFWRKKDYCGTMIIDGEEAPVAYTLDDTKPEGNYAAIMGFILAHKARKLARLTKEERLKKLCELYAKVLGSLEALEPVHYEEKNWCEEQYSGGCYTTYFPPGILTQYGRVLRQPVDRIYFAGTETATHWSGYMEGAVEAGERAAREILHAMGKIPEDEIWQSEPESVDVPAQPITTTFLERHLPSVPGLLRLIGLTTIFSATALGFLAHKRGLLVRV
Nature of the assay: Inhibition of human recombinant MAO-B assessed as inhibition of production of hydrogen peroxide at 100 uM after 15 mins by the Amplex Red fluorimetric method.

The target in assay [3] is T2, Amine oxidase [flavin-containing] B. Description: Inhibition of human recombinant MAO-B assessed as inhibition of production of hydrogen peroxide at 1 mM after 15 mins by the Amplex Red fluorimetric method.

With `O=C(O)c1coc2ccccc2c1=O`, in assay [1], the IC50 result is reported as “Not Active”.

Consider `O=C(O)c1cc(=O)c2ccccc2o1` [CHROMOCARB], for which the IC50 entry in assay [1] and in assay [2] was “Not Active” throughout.

With `O=C(NCCN1CCOCC1)c1ccc(Cl)cc1` [MOCLOBEMIDE], the IC50 entry in assay [3] was “Not Active”.

Values taken from ChEMBL document CHEMBL1158559, “Chromone-2- and -3-carboxylic acids inhibit differently monoamine oxidases A and B” (Bioorg Med Chem Lett, 2010).
